Test results published in patent US4146721A, “Pyrazol-4-acetic acid compounds” (priority 1970, dated 1979).
Like-named read-outs stand apart in the source and are kept apart here.

Tests used:
rat = assay: Lowering of the normal temperature of the rat; assay type: in vivo; conditions: for ED (15 degC temperature lowering): ip, read-out: dose i.p. that lowered the normal temperature of the rat by 15.° C.
Experimental: In addition thereto, the new pyrazole compounds of the invention effect a lowering of the temperature in mammalians: 60 mg/kg of compound A and 25 mg/kg of compound L, administered i.p. to the rat lowered the normal temperature of the rat by 15.° C.

mouse [1] = conditions: Table II; I.P.
Experimental: (§2) ^3) Dose, at which 50% of the animals died within 72 hours after
administration of the substance

in vivo = conditions: mouse, ip
Experimental: as §2
administration of the substance

mouse [2] = assay: Analgesic effect: delay in the defense reaction of the mouse upon thermal stimulation of the root of the tail by a heat beam; assay type: in vivo; conditions: oral; for ED20 / ED40: Mus musculus; for ED20: mean delay in defense reaction by 20% during 2 hours; for ED40: mean delay in defense reaction by 40% during 2 hours; for ED20 Relative / ED40 Relative: relative to aminophenazone
Experimental: (§1) The analgesic effect is measured as the mean delay in the defense reaction of the mouse by 20% (ED20) and 40% (ED40) during 2 hours upon thermal stimulation of the root of the tail by a heat beam relative to aminophenazone.

[3] = as above; assay type: in vivo; conditions: mouse, in vivo; LD5 I.P. / ED40 oral; read-out: Therapeutic Index LD5/ED40
Experimental: as §1

[4] = tested on: Carrageenin edema of the rear paw of the rat; assay: Carrageenin edema of the rear paw (antiphlogistic effect); assay type: in vivo; conditions: for Retardation of the Carrageenin Edema, Relative Effect: Phenylbutazon = 1.0; for ED40: read-out: Retardation of the Carrageenin Edema by 40% by mg/kg oral
[5] = tested on: ultraviolet erythema of the skin on the back of the guinea pig; assay: Ultraviolet erythema of the skin on the back (antiphlogistic effect); assay type: in vivo; conditions: for ED50: Cavia porcellus, read-out: Retardation of the UV-Erythema by 50% by mg/kg oral; for Retardation of the UV-Erythema, Relative Effect: Phenylbutazon = 1.0
[6] = cited from earlier work
[7] = rat, lowering by 15.° C. (so in the source)
[8] = Toxicity LD50 after a single dose in the mouse, Table I, i.p., 50% of the animals died within 72 hours
[9] = rat, oral, dose for 40% retardation
[10] = guinea pig, oral, dose for 50% retardation

In the case of `Cc1c(N(C)C)c(=O)n(-c2ccccc2)n1C` [Aminophenazone, reference compound], the ED (15 degC temperature lowering) (rat; [7]) is reported as 70 mg/kg, the LD5 (mouse [1]) is reported as 270 mg/kg and the LD50 at 72 h (in vivo) is reported as 330 mg/kg. The ED20 (mouse [2]) was 50 mg/kg, the ED40 (mouse [2]) was 140 mg/kg and the selectivity ratio [3] was 1.9.
In the case of `CCCCn1nc(-c2ccccc2)c(CC(=O)O)c1-c1ccccc1` [K, 1-n-butyl-3,5-diphenyl-pyrazol-4-acetic acid], the LD5 (mouse [1]) is reported as 360 mg/kg, the LD50 at 72 h (in vivo; LD50, Table II, I.P.) is reported as 430 mg/kg and the ED20 (mouse [2]) is reported as 20 mg/kg. For the same molecule, the ED40 (mouse [2]) was 80 mg/kg, the “ED20 Relative” value (mouse [2]) was 2.5 and the “ED40 Relative” value (mouse [2]) was 1.8. For the same molecule, the selectivity ratio [3] was 4.5.
Work on `O=C(O)Cc1cnn(-c2ccccc2)c1-c1ccc(Cl)cc1` [I, 1-phenyl-5-(p-chlorophenyl)-pyrazol-4-acetic acid] yielded an LD5 (mouse [1]) of 180 mg/kg, an LD50 at 72 h (in vivo; LD50, Table II, I.P.) of 279 mg/kg and an ED20 (mouse [2]) of 50 mg/kg. The ED40 (mouse [2]) was 70 mg/kg, the “ED20 Relative” value (mouse [2]) was 1.0 and the “ED40 Relative” value (mouse [2]) was 2.0. For the same molecule, the selectivity ratio [3] was 2.6.
In the case of `O=C(O)Cc1c(-c2ccccc2)nn(-c2ccccc2)c1-c1ccccc1` [A, 1,3,5-triphenyl-pyrazol-4-acetic acid], the “lowering of the normal temperature of the rat” value (rat; 60 mg/kg i.p.) is reported as 15. ° C, the ED (15 degC temperature lowering) (rat; Rattus norvegicus) is reported as 60 mg/kg and the LD50 at 72 h (in vivo) is reported as 312 mg/kg. The “Retardation of the Carrageenin Edema, Relative Effect” value ([4]; rat, oral) was 6.0, the ED40 ([4]; Rattus norvegicus, po) was 5 mg/kg and the ED50 ([5]; po) was 3 mg/kg. For the same molecule, the “Retardation of the UV-Erythema, Relative Effect” value ([5]; guinea pig, oral) was 5.3.
For `COc1ccc2c(c1)c(CC(=O)O)c(C)n2C(=O)c1ccc(Cl)cc1` [Indomethacin, 2-methyl-5-methoxy-1-(p-chlorobenzoyl)-indol-3-acetic acid, reference compound], the LD50 at 72 h (in vivo) was 45 mg/kg, the “Retardation of the Carrageenin Edema, Relative Effect” value ([4]; rat, oral) was 7.5 and the ED40 ([4]; Rattus norvegicus, po) was 4 mg/kg. The ED50 ([5]; po) was 20 mg/kg, the “Retardation of the UV-Erythema, Relative Effect” value ([5]; guinea pig, oral) was 0.8 and the side effects ([6]; Chem. Eng. News 46 (1968)) was “many undesirable side effects”. For the same molecule, the “antiphlogistic, analgesic and antipyretic effectiveness compared with 4-n-butyl-1,2-diphenyl-3,5-dioxopyracoline” value ([6]; J. Am. Chem. So. 85, 488 (1963)) was “surpassing in this respect the effectiveness”.
`COc1cccc(-c2nn(-c3ccccc3)c(-c3cccc(OC)c3)c2CC(=O)O)c1` [N, 1-phenyl-3,5-bis-(m-methoxyphenyl)-pyrazol-4-acetic acid] showed an LD5 (mouse [1]) of 200 mg/kg, an LD50 at 72 h (in vivo; LD50, Table II, I.P.) of 312 mg/kg and an ED20 (mouse [2]) of 30 mg/kg. For the same molecule, the ED40 (mouse [2]) was 55 mg/kg, the “ED20 Relative” value (mouse [2]) was 1.7 and the “ED40 Relative” value (mouse [2]) was 2.5. It also gave a selectivity ratio [3] of 3.6.
In the case of `CCCCn1nc(C)c(CC(=O)O)c1C` [E, 3,5-dimethyl-1-n-butyl-pyrazol-4-acetic acid], the LD50 at 72 h (in vivo; [8]) is reported as 1400 mg/kg, the “Retardation of the Carrageenin Edema, Relative Effect” value ([4]; rat, oral) is reported as 0.6 and the ED40 [4, 9] is reported as 50 mg/kg.
Molecule `O=C(O)Cc1c(-c2ccc(Cl)cc2)nn(-c2ccccc2)c1-c1ccc(Cl)cc1` [M, 1-phenyl-3,5-bis-(p-chlorophenyl)-pyrazol-4-acetic acid] has an LD5 (mouse [1]) of 38 mg/kg, an LD50 at 72 h (in vivo; LD50, Table II, I.P.) of 51 mg/kg and an ED20 (mouse [2]) of 7 mg/kg. For the same molecule, the ED40 (mouse [2]) was 20 mg/kg, the “ED20 Relative” value (mouse [2]) was 7.1 and the “ED40 Relative” value (mouse [2]) was 7.0. The selectivity ratio [3] was 1.9.
With `O=C(O)Cc1c(-c2ccccc2)nn(-c2cccnc2)c1-c1ccccc1` [C, 3,5-diphenyl-1-(3-pyridyl)-pyrazol-4-acetic acid] the LD50 at 72 h (in vivo; [8]) was 1150 mg/kg, the “Retardation of the Carrageenin Edema, Relative Effect” value ([4]; rat, oral) was 1.5 and the ED40 [4, 9] was 20 mg/kg. For the same molecule, the ED50 [5, 10] was 2.5 mg/kg and the “Retardation of the UV-Erythema, Relative Effect” value ([5]; guinea pig, oral) was 6.4.
`CCCCC1C(=O)N(c2ccccc2)N(c2ccccc2)C1=O` [Phenylbutazon, reference compound] gave an ED40 [4, 9] of 30 mg/kg, an ED50 [5, 10] of 16 mg/kg and an ED20 (mouse [2]) of 150 mg/kg.
Molecule `O=C(O)Cc1c(-c2ccccc2)nn(-c2ccc(Cl)cc2)c1-c1ccccc1` [L, 3,5-diphenyl-1-(p-chlorophenyl)-pyrazol-4-acetic acid] has a lowering of the normal temperature of the rat (rat; 25 mg/kg i.p.) of 1.5 ° C, an ED (15 degC temperature lowering) (rat; [7]) of 25 mg/kg and an LD50 at 72 h (in vivo; LD50, Table II, I.P.) of ~80 mg/kg. For the same molecule, the ED20 (mouse [2]) was 15 mg/kg, the ED40 (mouse [2]) was 55 mg/kg and the “ED20 Relative” value (mouse [2]) was 3.3. The “ED40 Relative” value (mouse [2]) was 2.5.
`Cc1nn(-c2ccccc2)c(C)c1CC(N)=O` [P, 3,5-dimethyl-1-phenyl-pyrazol-4-acetamide] gave an LD5 (mouse [1]) of 500 mg/kg, an LD50 at 72 h (in vivo; LD50, Table II, I.P.) of 500 mg/kg and an ED20 (mouse [2]) of 50 mg/kg. For the same molecule, the ED40 (mouse [2]) was 150 mg/kg, the “ED20 Relative” value (mouse [2]) was 1.0 and the “ED40 Relative” value (mouse [2]) was 0.9. The selectivity ratio [3] was 3.3.
In the case of `Cc1nn(-c2ccccc2)c(-c2ccccc2)c1CC(=O)O` [G, 3-methyl-1,5-diphenyl-pyrazol-4-acetic acid], the LD50 at 72 h (in vivo; [8]) is reported as 500 mg/kg, the ED50 [5, 10] is reported as 20 mg/kg and the “Retardation of the UV-Erythema, Relative Effect” value ([5]; guinea pig, oral) is reported as 0.8.
For `COc1ccc(-n2nc(C)c(CC(=O)O)c2C)cc1` [F, 3,5-dimethyl-1-(p-methoxyphenyl)-pyrazol-4-acetic acid], the LD50 at 72 h (in vivo; [8]) was 1000 mg/kg, the “Retardation of the Carrageenin Edema, Relative Effect” value ([4]; rat, oral) was 0.6 and the ED40 [4, 9] was 50 mg/kg.
In the case of `CC(C(=O)O)c1c(-c2ccccc2)nn(-c2ccccc2)c1-c1ccccc1` (stereo not drawn) [H, α-methyl-1,3,5-triphenyl-pyrazol-4-acetic acid], the LD50 at 72 h (in vivo; [8]) is reported as 199 mg/kg, the “Retardation of the Carrageenin Edema, Relative Effect” value ([4]; rat, oral) is reported as 1.0 and the ED40 [4, 9] is reported as 30 mg/kg. The ED50 [5, 10] was 5 mg/kg and the “Retardation of the UV-Erythema, Relative Effect” value ([5]; guinea pig, oral) was 3.2.
With `O=C(O)Cc1c(-c2ccco2)nn(-c2ccccc2)c1-c1ccco1` [B, 1-phenyl-3,5-di-(2-furyl)-pyrazol-4-acetic acid] the LD5 (mouse [1]) was 190 mg/kg, the LD50 at 72 h (in vivo; LD50, Table II, I.P.) was 373 mg/kg and the LD50 at 72 h (in vivo; [8]) was 370 mg/kg. For the same molecule, the “Retardation of the Carrageenin Edema, Relative Effect” value ([4]; rat, oral) was 3.0, the ED40 [4, 9] was 10 mg/kg and the ED50 [5, 10] was 1.5 mg/kg. The “Retardation of the UV-Erythema, Relative Effect” value ([5]; guinea pig, oral) was 10.7, the ED20 (mouse [2]) was 10 mg/kg and the ED40 (mouse [2]) was 50 mg/kg. The “ED20 Relative” value (mouse [2]) was 5.0, the “ED40 Relative” value (mouse [2]) was 2.8 and the selectivity ratio [3] was 3.8.
In the case of `Cc1nn(-c2ccccc2)c(C)c1CC#N` [Q, 3,5-dimethyl-1-phenyl-pyrazol-4-acetonitrile], the ED20 (mouse [2]) is reported as 20 mg/kg, the ED40 (mouse [2]) is reported as 40 mg/kg and the “ED20 Relative” value (mouse [2]) is reported as 2.5. For the same molecule, the “ED40 Relative” value (mouse [2]) was 3.5.
In the case of `CCOC(=O)Cc1c(-c2ccccc2)nn(-c2cccc(C(F)(F)F)c2)c1-c1ccccc1` [O, 3,5-diphenyl-1-(α,α,α-trifluoro-m-tolyl)-pyrazol-4-acetic acid-ethyl ester], the ED20 (mouse [2]) is reported as 50 mg/kg, the ED40 (mouse [2]) is reported as 70 mg/kg and the “ED20 Relative” value (mouse [2]) is reported as 1.0. For the same molecule, the “ED40 Relative” value (mouse [2]) was 2.0.
`O=C(O)Cc1cn(-c2ccccc2)nc1-c1ccc(Cl)cc1` [D, 1-phenyl-3-(p-chlorophenyl)-pyrazol-4-acetic acid] showed an ED40 [4, 9] of 2.5 mg/kg and an ED50 [5, 10] of 3 mg/kg.
In the case of `COc1ccc(-c2nn(-c3ccccc3)cc2CC#N)cc1` [R, 1-phenyl-3-(p-methoxyphenyl)-pyrazol-4-acetonitrile], the ED20 (mouse [2]) is reported as 50 mg/kg, the ED40 (mouse [2]) is reported as 80 mg/kg and the “ED20 Relative” value (mouse [2]) is reported as 1.0. For the same molecule, the “ED40 Relative” value (mouse [2]) was 1.8.
